Entries after “also recorded” stand apart in the source; their conditions may differ.

Series [1] has as its system MCF-7 breast cancer cells. As to the kind of experiment: Apoptosis/necrosis detection (Annexin V-FITC/PI, image cytometry), MCF-7. The series is classed as cell-based, human. The following applies: MCF-7, IC50 concentration, 48 h. On the procedure:
The MTT test results prompted further study. Staining with propidium iodide and Annexin V-FITC was performed to distinguish apoptotic from necrotic cell death.
Apoptosis was analyzed using the NucleoCounter® NC-3000™ (Chemometec Inc., Lillerød, Denmark) according to the manufacturer’s protocol using Annexin V from Biotium (Fremont, CA, USA). MCF-7 and MDA-MB-231 cells were seeded into 6-well plates (2 × 10^5 cells/mL) and cultured until 70–80% confluence was reached. […] Scatter plots were used to determine the proportion of healthy cells (Annexin V-negative/PI-negative cells), early apoptotic cells (Annexin V-positive/PI-negative cells), late apoptotic cells (Annexin V-positive/PI-positive cells), and necrotic cells (Annexin V-negative/PI-positive cells). Data were derived from three independent experiments with three replicates.

The target of a further series is T1, CYP3A4 (Homo sapiens, UniProt P08684).
T1 construct: purchased Promega (Madison, WI, USA)
Nature of the series: Influence on CYP3A4 activity (P450-Glo). It counts as in vitro ADME. On the procedure:
(§1) Treatment of elderly patients who suffer from cancer or degenerative CNS diseases usually requires the use of more than one medication at the same time, which can result in a greater risk of DDIs. […] The results were compared to the selective CYP3A4 inhibitor ketoconazole and selective CYP2D6 inhibitor quinidine.
(§2) All assays and protocols used for the determination of compound ADME-Tox parameters were described previously. In brief, the metabolic stability assay was performed on HLMs, purchased from Sigma-Aldrich (St. Louis, MO, USA). ADS10310 was incubated with HLMs for 120 min in Tris buffer (pH = 7.4) at 37 °C. NADPH regeneration system Promega (Madison, WI, USA) was added to initiate whereas methanol was added to terminate the reaction. The LC/MS analyses of the centrifuged reaction mixture were obtained on Waters ACQUITY™ TQD system (Waters, Milford, CT, USA). The in silico prediction of most probable sites of ADS10310 metabolism was performed by MetaSite 6.0.1 software (Molecular Discovery Ltd., Hertfordshire, UK). […] The results were calculated from two independent experiments.
(§3) The luminescent signal and the absorbances (measured at 490 nm) in DDIs and safety assays were measured by using an EnSpire PerkinElmer microplate reader (Waltham, MA, USA). […]

In a further series the target is T2, gpH1R (Cavia porcellus, UniProt P31389).
T2 construct: from tissue; host or cells: isolated distal ileum of male guinea pigs
As to the kind of experiment: Ex vivo assay for histamine H1R antagonists on guinea pig ileum stimulated by histamine (+atropine). The following applies: gpH1R +Atropine pA2 ± sem, isolated guinea pig ileum, vs histamine, 0.05 µM atropine. On the procedure: A second histamine receptor located in the guinea pig ileum is H1R. The antagonistic effect at H1R was measured on the isolated guinea pig ileum stimulated to contractions by histamine. To eliminate the impact of muscarinic receptors located on the tested tissue, 0.05 µM of atropine was added to the Krebs buffer.
Ex vivo assay for histamine H3R and H1R antagonists were measured on the isolated guinea pig ileum stimulated to contractions by histamine. The pA2-values were calculated according to Arunlakshana and Schild. The radioligand-displacement binding assay was performed in membrane fractions of HEK-293 cells stably expressing hH3R. Cell cultivation and membrane preparation was performed according to Kottke et al.. The Ki values were calculated from the IC50 values using the Cheng–Prusoff equation [37]. The statistical calculations were performed on –log(Ki). […] The inhibitory activities of novel ADS compounds were assessed in spectrophotometric Ellman’s assay using AChE from electric eel (eeAChE) and BuChE from horse serum (eqBuChE).
3.2 Ex vivo assay for histamine H1R receptor antagonists on guinea pig ileum.
Male guinea pigs, weighing 300-400 g were euthanized by a blow to the neck. A 20-30 cm length of the distal ileum, apart from the terminal 5 cm was rapidly removed and placed in phosphate buffer at room temperature (pH […]
Aldrich, St. Louis, MO, USA) (1·10-6 mol/L). The intraluminal content was rinsed and the isolated intestine was cut into 1.5-2 cm segments. The preparations were mounted isotonically in a 20 mL organ bath filled with Krebs […]
a constant load of 0.5 g (Hugo Sachs Hebel-Messvorsatz (Tl-2)/HF-modem; Hugo Sachs Elektronik, Hugstetten, Germany) connected to a pen recorder (Kipp & Zonen BD41, Delft, Holland). During an equilibration period of 40 min, the Krebs buffer was changed every 10 min. The first cumulative concentration-response curve was determined to histamine (Sigma-Aldrich, St. Louis, MO, USA) (10 nM - 10 mM) at increasing concentration spaced by three or 3.3-fold. The second to the fourth (or fifth) curve was measured in the presence of an increasing concentration of antagonist (incubation time 10 min). The pA2-values were calculated according to Arunlakshana and Schild. [Br J Pharmacol Chemother. […] Statistical analysis was carried out with the Students’ t-test. In all tests, a p<0.05 was considered statistically significant. The pA2 values were compared with the affinity

The nature of series [2]: In vitro metabolic stability in human liver microsomes. It counts as in vitro ADME. On the procedure:
In addition to biological activity, drug-likeness is equally important in drug discovery, and should be considered at the early stage of the drug development process. Therefore, ADS10310 was subjected to testing for several ADME-Tox parameters, including metabolic stability.
All assays and protocols used for the determination of compound ADME-Tox parameters were described previously. In brief, the metabolic stability assay was performed on HLMs, purchased from Sigma-Aldrich (St. Louis, MO, USA). ADS10310 was incubated with HLMs for 120 min in Tris buffer (pH = 7.4) at 37 °C. NADPH regeneration system Promega (Madison, WI, USA) was added to initiate whereas methanol was added to terminate the reaction. The LC/MS analyses of the centrifuged reaction mixture were obtained on Waters ACQUITY™ TQD system (Waters, Milford, CT, USA). The in silico prediction of most probable sites of ADS10310 metabolism was performed by MetaSite 6.0.1 software (Molecular Discovery Ltd., Hertfordshire, UK). To predict potential DDIs the CYP3A4 and CYP2D6 P450-Glo™ kits provided by Promega (Madison, WI, USA) were used according to provided protocols. The results were calculated from two independent experiments.
Background: Microsomes from liver hold many membrane-bound enzymes, among them those of drug oxidation.

The subject of the next series is hepatoma HepG2 cell line. As to the kind of experiment: Hepatotoxicity assay (MTS), HepG2. The series is classed as cell-based.
The target of another series is T3, CYP2D6 (Homo sapiens, UniProt P10635).
T3 construct: purchased Promega (Madison, WI, USA)
Nature of the series: Influence on CYP2D6 activity (P450-Glo). It counts as in vitro ADME. As to the method:
as §1, §2, §3

T3 sequence (P10635 whole entry): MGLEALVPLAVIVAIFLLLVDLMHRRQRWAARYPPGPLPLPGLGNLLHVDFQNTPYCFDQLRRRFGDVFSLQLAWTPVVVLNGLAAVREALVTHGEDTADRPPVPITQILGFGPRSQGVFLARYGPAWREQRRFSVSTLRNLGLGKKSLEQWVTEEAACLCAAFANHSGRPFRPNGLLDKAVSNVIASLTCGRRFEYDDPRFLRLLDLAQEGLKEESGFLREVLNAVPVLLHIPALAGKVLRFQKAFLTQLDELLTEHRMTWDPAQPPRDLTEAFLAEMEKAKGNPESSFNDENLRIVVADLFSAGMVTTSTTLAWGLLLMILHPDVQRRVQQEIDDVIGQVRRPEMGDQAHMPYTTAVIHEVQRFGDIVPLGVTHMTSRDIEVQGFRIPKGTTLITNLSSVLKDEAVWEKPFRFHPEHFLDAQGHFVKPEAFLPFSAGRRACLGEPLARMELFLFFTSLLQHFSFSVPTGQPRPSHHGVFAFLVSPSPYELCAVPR
T1 sequence (P08684 whole entry): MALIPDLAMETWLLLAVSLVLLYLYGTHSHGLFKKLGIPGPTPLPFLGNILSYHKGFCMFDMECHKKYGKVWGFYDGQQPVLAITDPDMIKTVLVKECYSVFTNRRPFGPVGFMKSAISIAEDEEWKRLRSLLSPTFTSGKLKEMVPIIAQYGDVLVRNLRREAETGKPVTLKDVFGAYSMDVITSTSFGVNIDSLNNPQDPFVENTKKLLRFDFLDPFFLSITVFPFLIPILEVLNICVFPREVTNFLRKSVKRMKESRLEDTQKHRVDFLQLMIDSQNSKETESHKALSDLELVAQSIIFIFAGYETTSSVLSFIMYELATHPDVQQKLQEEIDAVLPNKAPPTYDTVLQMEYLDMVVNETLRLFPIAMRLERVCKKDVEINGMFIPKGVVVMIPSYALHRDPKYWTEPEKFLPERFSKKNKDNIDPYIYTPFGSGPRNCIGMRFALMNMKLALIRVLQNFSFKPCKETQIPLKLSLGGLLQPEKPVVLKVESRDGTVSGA
T2 sequence (P31389 whole entry): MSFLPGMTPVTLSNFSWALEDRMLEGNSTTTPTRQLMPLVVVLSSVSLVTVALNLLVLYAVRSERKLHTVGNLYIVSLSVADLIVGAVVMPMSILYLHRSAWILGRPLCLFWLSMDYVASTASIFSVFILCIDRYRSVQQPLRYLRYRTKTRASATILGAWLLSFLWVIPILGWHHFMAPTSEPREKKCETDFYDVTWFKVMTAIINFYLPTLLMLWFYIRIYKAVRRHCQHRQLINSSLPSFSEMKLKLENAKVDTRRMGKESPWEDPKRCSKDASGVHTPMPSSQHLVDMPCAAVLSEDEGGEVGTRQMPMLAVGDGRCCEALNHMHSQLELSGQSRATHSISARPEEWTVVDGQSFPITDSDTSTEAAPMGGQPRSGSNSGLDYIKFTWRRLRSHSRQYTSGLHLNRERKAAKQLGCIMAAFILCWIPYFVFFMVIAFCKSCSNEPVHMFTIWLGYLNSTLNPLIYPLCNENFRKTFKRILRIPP
Protocol for hepatoma HepG2 cell line: The cells were grown in Minimum Essential Media (MEM) supplemented with 10% fetal bovine serum (FBS) in a humidified atmosphere of 5% CO2 to reach 70–80% confluency. The cells were seeded next into 96-well plates at a concentration of 0.7 × 10^4 cells/well. […] The 1% DMSO in culture media was used as the vehicle control.

For `N=C(N)N(CCCCN1CCN(CCCCCCCOc2ccccc2)CC1)Cc1ccccc1` [ADS1017], in series [1], the “early apoptotic cells (Q1lr)” value came to 2% and the “late apoptotic cells (Q1ur)” value worked out at 38%.

Consider `Cl.Cl.N=C(NCCCCc1ccc(Cl)cc1)NCCCCN1CCCCC1` [ADS10310], for which, at CYP3A4, the “influence on CYP3A4 activity” value is on record as “did not show any influence on CYP3A4 activity”. The same compound had a Kb at gpH1R of 0.339 µM. For the same compound, the “Substrate Remaining” value in series [2] (120 min incubation with HLMs, Tris buffer pH 7.4, 37 °C) is on record as 73.6%. For the same compound, in series [2] (HLMs, metabolites M1-M3 by LC/MS), the “Metabolic Pathway” value was “decomposition and triple hydroxylation”. Further, the “decrease of hepatoma HepG2 cell viability” value in the series with hepatoma HepG2 cell line (100 µM, 72 h) was ~ 40%. In addition, the “HepG2 cell viability at concentrations up to 50 µM” value in the series on hepatoma HepG2 cell line (72 h) was “no decrease”. Moreover, the “hepatotoxic activity (in words)” value with hepatoma HepG2 cell line (HepG2, 72 h, 0.01-100 µM) is “weak hepatotoxic activity”. The “CYP2D6 inhibition (in words)” value at CYP2D6 is given as “strongly inhibited CYP2D6; also recorded: strong inhibitor of CYP2D6 activity”. Also, at CYP2D6 (lowest tested dose of 0.1 µM), the “decrease of CYP2D6 activity” value is recorded as “more than 50%”.

One may read the Kb as the equilibrium dissociation constant of an antagonist, usually derived from a functional assay. Read a low Kb as higher antagonist affinity.
